As a reminder, the IC50 is the point on the concentration scale where inhibition reaches its midpoint.

Results on 4 molecules are retold here after patent US4904697A, “Controlling the growth of certain tumor tissue with chalcone derivatives” (Merrell Dow Pharmaceuticals Inc., priority 1987, dated 1990).

Values after ≈ are worked out from the molar mass of the structure shown. Read-outs that look alike come from different tables or passages of the source.

In assay [1] the test system is HeLa cells. The assay can be described thus: Mitotic accumulation (mitotic arrest) of HeLa cells. The following applies: Homo sapiens, read-out: MITOTIC ARREST Minimum Effectice Concentration. It is filed as cell-based.
Procedure: Exponentially growing human carcinoma (HeLa) cells are plated at a densit
of 1 × 10^4 cells/well in a 24 well plate. The compounds were
dissolved in dimethylsulfoxide and diluted with complete medium. The cell
were innoculated with the medium containing the test compound either for
hours or 1 hour. For the 1 hour test, the cells were washed twice and
further grown for 18 hours in the presence of drug free medium. The
mitotic cells in the supernatent were collected and were pooled with the
trypsinized cells and cytopreps were made on slides using a
cytocentrifuge. The slides were fixed with Carnoy's solution, stained wit
acetoorcein, and the mitotic index was determined.
For assay [2], the system named is Human Choriotrophoblast Tumor (JAr). The assay can be described thus: Growth of human choriotrophoblast tumor (JAr) in athymic mice. It is filed as in vivo. An excerpt: (§1) The effect of a chalcone derivative of structure 1 to control the growth of tumor tissue can be assessed in standard animal tumor models, for example, in the following animal tumor modes: (a) L1210 leukemia in mice, (b) EMT6 tumor in Balb/C mice, (c) 7,12-dimethylbenzanthracene-induced (DMBA-induced) mammary tumor in rats, and (d) Morris 7288C or 5123 hepatoma in Buffalo rats.
(D) Effect of α-methyl-4-Dimethylamino-2',5'-
dimethoxychalcone On the Growth of Human
Choriotrophoblast Tumor (JAr) In Athymic Mice
JAr cells (1.5 × 10^6 cells/animal) were injected (s.c.) on day
zero. The compound, 4dimethylamino-2',5dimethoxychalcone, was suspended i
5 per cent polyvinylpyrrolidone (PVP) and administered (i.p.) once daily
as indicated. At the end of 12 days the animals were sacrificed, tumors

The test system of a further assay is L1210 Leukemia. Description: Survival of L1210 leukemia in mice. The format is in vivo.
Text: as §1
(C) Effect of α-methyl-4-Dimethylamino-2',5'-dimethoxychalcone
and Other Mitotic Inhibitors on the Survival of L1210 Leukemia in
1 × 10^5 leukemic cells/animal were inoculated (i.p.) on day
zero. The compounds were suspended or dissolved in 5% polyvinylpyrrolidon
(PVP) and administered once daily from day 1-9 (i.p.). The survival of th
animals was noted and average survival was determined.

For assay [3], the system named is B16 Melanoma. Description: Growth of B16 melanoma in mice (tumor weight). The following applies: for TUMOR GROWTH (Mean ± S.E., n = 10): tumors weighed day 18. It is filed as in vivo.
Text: as §1
(§2) (B) Effect of α-methyl-4-Dimethylamino-2',5'-dimethoxychalcone On
(§3) the Growth and Survival of B16 Melanoma Bearing Mice
(§4) 1 × 10^5 B16 melanoma cells/animal were injected (s.c.) or
(§5) (i.p.)? on day 0. Compounds suspended in 5 percent polyvinylpyrrolidone
(§6) (PVP) were administered once daily (i.p. ) from day 1-15. For tumor growt
studies the animals were sacrificed on day 18, the tumors were excised,
and weighed. For survival studies the survival days of each animal was […]

The test system of assay [4] is B16 Melanoma. Description: Survival of B16 melanoma bearing mice. The format is in vivo.
Text: as §1, §2, §3, §4, §5, §6
and weighed. For survival studies the survival days of each animal was
noted and average survival was determined.

The subject of another assay is P388 Leukemia. The assay can be described thus: Survival of P388 leukemia bearing mice. The format is in vivo.
Text: as §1
(A) Effect of α-methyl-4-Dimethylamino-2',5'-dimethoxychalcone
on the Survival of P388 Leukemia Bearing Mice
1 × 10^5 P388 leukemia cells/animal were inoculated (i.p.) on
day zero. Compound was suspended in 5% polyvinylpyrrolidone (PVP) and was
administered (i.p.) once daily from day 1-9. The survival of the animals
was noted and the average survival was determined.

Assay [5] can be described thus: Experimental Allergic Encephalomyelitis (EAE) in rats. The format is in vivo, rats (Lewis strain). Particulars: 25.0 mg/kg s.c. once every other day, day 1 through 10. The text has this:
The compounds of structure 1 inhibit the destruction of myelin sheath surrounding the axons of the central nervous system. This myelin destruction is characteristic in those individuals suffering from multiple sclerosis. By preventing the destruction of myelin in multiple sclerosis patients, the compounds of structure 1 will prevent or reduce the progressive nature of the disease, prevent or increase the length of time between the recurrent episodes of the disease, and prevent or suppress the formation of the scarlike, multiple sclerotic plaques characteristic of the disease. […] This myelin brings about an immune response in the individual in which the myelin sheath is destroyed. EAE is an experimental model of multiple sclerosis.
Effect of α-methyl-4-dimethylamino-2',5'-dimethoxychalcone on
Experimental Allergic Encephalomyelitis (EAE) In Rats
EAE was induced in rats as described by Rosenthal and Nagra, Proc. Soc.
Exp. Biol. Med. 125, 149 (1967). Lewis strain rats ranging in weight from
100-200 g were sensitized with encephalitogenic emulsion consisting of
homogenized spinal cord in complete Freund's adjuvant. The test compound
and hydrocortisone (HC) were administered in polyvinylpyrrolidone vehicle
The test compound was administered i.p. once daily from day 1 through day
10. […]
10. The incidence of paralysis was recorded and mean paralysis time was […]

Assay [6] has as its system HeLa cells. Description: Growth inhibition of HeLa cells. It is filed as cell-based. Particulars: Homo sapiens, 72 h, read-out: GROWTH INHIBITION IC50. The protocol:
For growth inhibition studies, exponentially growing HeLa cells were
incubated at a density of 1 × 10^5 cells/35 mm dish with a
number of dilutions of the test compound in the medium. The plates were
incubated at 37° C. in a CO2 incubation. At the end of 72
hours the cells were collected by trypinization and counted and the […]

[7] abbreviates: 25 mg/kg i.p. once daily, day 1-11.
Where [8] appears, read: 25 mg/kg i.p. once daily, day 7-11.
Setting [9] is: 50 mg/kg i.p. once daily, day 1-11.
Where [10] appears, read: 50 mg/kg i.p. once daily, day 7-11.
The mark [11] stands for this setting: 6.25 mg/kg i.p. once daily day 1-9.
The mark [12] stands for this setting: 12.5 mg/kg i.p. once daily day 1-9.
Where [13] appears, read: 25.0 mg/kg i.p. once daily day 1-9.
The mark [14] stands for this setting: 50.0 mg/kg i.p. once daily day 1-9.
The mark [15] stands for this setting: 12.5 mg/kg i.p. once daily day 1-15.
[16] abbreviates: 25 mg/kg i.p. once daily day 1-15.
The mark [17] stands for this setting: 50 mg/kg i.p. once daily day 1-15.
Where [18] appears, read: 25 mg/kg i.p. once daily day 1-9.
Where [19] appears, read: 50 mg/kg i.p. once daily day 1-9.
The mark [20] stands for this setting: 0.20 mg/kg i.p. once daily day 1-9.
[21] abbreviates: 0.2 mg/kg i.p. once daily day 1-15.

On to `COc1ccc(OC)c(C(=O)C(C)=Cc2ccc(N(C)C)cc2)c1` [1-(2,5-dimethoxyphenyl)-3-[4-(dimethylamino)phenyl]-2-methyl-2-propen-1-one], for which the minimal effective concentration in the assay with HeLa cells [1] (1 hour, then washed and grown 18 hours in drug free medium) was found to be 0.06 µg/mL; in the assay on HeLa cells [1] (6 hours), 0.0038 µg/mL. Moreover, the “PERCENT INHIBITION (tumor weight)” value came out at 29% in assay [2] (setting [7]), 21% in assay [2] (setting [8]), 65% in assay [2] (setting [9]) and 31% in assay [2] (setting [10]). The “TUMOR WEIGHT (Means ± S.E., n = 6)” value is 2.86 ± 0.38 g in assay [2] (setting [7]), 3.19 ± 0.61 g in assay [2] (setting [8]), 1.41 ± 0.32 g in assay [2] (setting [9]) and 2.70 ± 0.36 g in assay [2] (setting [10]). Besides, the “PERCENT T/C (survival)” value in the assay on L1210 Leukemia (setting [11]) came out at 126%; in the assay with L1210 Leukemia (setting [12]), 137%; with L1210 Leukemia (setting [13]), 146%; in the assay on L1210 Leukemia (setting [14]) it was 154%; with B16 Melanoma [4] (setting [15]), 146%; with B16 Melanoma [4] (setting [16]), 183%. The “PERCENT T/C (survival)” value with P388 Leukemia (setting [18]) is 142%; with P388 Leukemia (setting [19]), 141%. The “SURVIVAL TIME (Mean ± S.E., n = 20)” value was determined as 8.8 ± 0.2 days with L1210 Leukemia (setting [11]), 9.6 ± 0.3 days in the assay with L1210 Leukemia (setting [12]), 10.2 ± 0.2 days with L1210 Leukemia (setting [13]) and 10.8 ± 0.4 days in the assay on L1210 Leukemia (setting [14]). Besides, the “PERCENT INHIBITION (tumor growth)” value is reported as 30% with B16 Melanoma [3] (setting [15]), 32% with B16 Melanoma [3] (setting [16]) and 45% with B16 Melanoma [3] (setting [17]). Further, the “TUMOR GROWTH (Mean ± S.E., n = 10)” value with B16 Melanoma [3] (setting [15]) is given as 4.66 ± 0.56 g; in the assay on B16 Melanoma [3] (setting [16]), 4.5 ± 0.70 g; in the assay on B16 Melanoma [3] (setting [17]), 3.66 ± 0.83 g. The “SURVIVAL (MEAN ± S.E., n = 10)” value with B16 Melanoma [4] (setting [15]) was 20.4 ± 1.5 days; in the assay on B16 Melanoma [4] (setting [16]) it was 25.6 ± 4.8 days. Also, the “SURVIVAL TIME (Mean ± S.E., n = 10)” value with P388 Leukemia (setting [18]) amounted to 16.0 ± 1.5 days; in the assay on P388 Leukemia (setting [19]), 15.8 ± 0.5 days.
In the case of `C[C@]12CCC(=O)C=C1CC[C@@H]1[C@@H]2[C@@H](O)C[C@@]2(C)[C@H]1CC[C@]2(O)C(=O)CO` [HYDROCORTISONE, hydrocortisone], the “PERCENT INCIDENCE OF PARALYSIS” value in assay [5] stood at 74%. The “PARALYSIS TIME (Mean ± S.E.)” value in assay [5] (significant at p < 0.01) is 11.0 ± 0.28 days.
As for `CC[C@]1(O)C[C@@H]2CN(CCc3c([nH]c4ccccc34)[C@@](C(=O)OC)(c3cc4c(cc3OC)N(C)[C@H]3[C@@](O)(C(=O)OC)[C@H](OC(C)=O)[C@]5(CC)C=CCN6CC[C@]43[C@@H]65)C2)C1` [VINBLASTINE, vinblastine, reference compound], the minimal effective concentration in the assay with HeLa cells [1] (6 h) was determined as 0.0015 µg/mL. Further, the IC50 with HeLa cells [6] worked out at 0.015 mg/L (≈ 0.0185 µM). Further, in the assay with L1210 Leukemia (setting [20]), the “PERCENT T/C (survival)” value is 140% and the “SURVIVAL TIME (Mean ± S.E., n = 20)” value is 9.8 ± 0.4 days. In addition, in the assay on B16 Melanoma [4] (setting [21]), the “PERCENT T/C (survival)” value is on record as 180% and the “SURVIVAL (MEAN ± S.E., n = 10)” value is 25.2 ± 2.3 days.
Turning to `CC[C@]1(O)C[C@H]2CN(CCc3c([nH]c4ccccc34)[C@@](C(=O)OC)(c3cc4c(cc3OC)N(C=O)[C@H]3[C@@](O)(C(=O)OC)[C@H](OC(C)=O)[C@]5(CC)C=CCN6CC[C@]43[C@@H]65)C2)C1` [VINCRISTINE, vincristine, reference compound], in the assay on L1210 Leukemia (setting [20]), the “PERCENT T/C (survival)” value worked out at 146% and the “SURVIVAL TIME (Mean ± S.E., n = 20)” value was 10.2 ± 0.4 days.
